Measurements as given in article PMC6941952, “A homogeneous bioluminescent immunoassay to probe cellular signaling pathway regulation” (Communications Biology, 2020).
Values joined by “and” are separate entries in the source; they are usually repeats but may differ in a detail not shown here. Equal values may be shown once.

Tested on: phospho-IκBα (Ser32)
Assay: NanoBiT cell-based immunoassay, phosphorylated IκBα in human breast tumor epithelial cells
Details: for P-IkB Average: background subtracted; for P-IkB Raw data / P-IkB Subtract reagent background: listed as TNF
Method: All cell lines used are from ATCC. […] Human Primary Mammary Epithelial Cells (#H-6035), Human Breast Tumor Epithelial Cells (#HC-6035), Complete Human Epithelial Cell Medium (#H6621), and Gelatin-Based Coating Solution (#H6950) were purchased from Cell Biologics. The cells were cultured according to the manufacturer’s procedure. All cells were grown at 37 °C in a 5% CO2 humidified incubator and passaged before reaching 80% cell confluency. Prior to each experiment, cells were counted by combining 30 µl of cell suspension with 30 µl of trypan blue. After gentle pipetting up and down to mix the cells and the dye, the cell number was determined using Bio-Rad TC 20 cell counter.
Prior to NanoBiT Cell-Based Immunoassay, 50,000 cells were seeded in 160 µl of complete growth media per well of a 96-well plate and incubated overnight. The cells were checked under microscope and it was determined that 50,000 cells per well in 96-well plate is under 90% confluency for all cells tested. If necessary, the cell culture media were replaced with serum-free media after the cells were stably adherent on the plate and incubated overnight. To treat cells with activators or inhibitors, medium was changed to 30 µl of medium containing inhibitors. If activation of a specific pathway is needed, the cells were stimulated with 10 µl of medium containing activators. To lyse the cells, 10 µl of lysis buffer containing 0.1% digitonin diluted in 1X immunoassay buffer with protease and phosphatase inhibitors was added and the plates were mixed vigorously for 20 min. Then, 50 µl of an antibody mix containing two primary antibodies against the target protein and NanoBiT detecting antibodies (0.3 µl each per well), diluted in 1X immunoassay buffer was added to the lysates. The plates were incubated at 23 °C for 90 min, followed by the addition of 25 µl of Nano-Glo® reagent consisting of Nano-Glo® Luciferase Assay Substrate mixed with 1X immunoassay buffer. Luminescence was measured using a plate-reading luminometer.
Single dose or dose response inhibitor treatments were performed prior to activation of the pathways as follows. For IκBα, the cells were treated in 30 µl medium with IKK16 or MG132 for 60 min before the addition of 10 µl of DMEM containing appropriate concentration of TNFα. To measure phosphorylation of AKT or STAT3, the corresponding NanoBiT immunoassays were developed with MCF-7 or A431 cells, respectively, according the same scheme used to develop the IκBα assay using the primary antibodies for AKT and STAT3 described in the reagents section. For the AKT assay, MCF-7 cells were incubated overnight in phenol-red free DMEM medium (Gibco #21063-029) without serum. Treatment with LY294002 was performed in 30 µl medium and cells were incubated for 60 min before the addition of 1 µM Insulin. To measure STAT3 phosphorylation, A431 cells were incubated overnight in DMEM medium without serum. […] After addition of the stimulators, the cells were incubated for additional times as follows. IκBα phosphorylation and degradation analyses required both time courses and single time points as described in figures. […] The NanoBiT immunoassay protocol was followed as described above.
All 96-well assay plates were read using a GloMax® 96 Microplate Luminometer from Promega. The instrument was set to 0.5 s integration time. In order to obtain net change of signal, the reagent background values (signal from the well containing all reagent except primary antibodies) were subtracted from the sample values. To plot and analyze the data, Microsoft Excel and GraphPad Prism® Software were used. IC50 values were determined by using a nonlinear regression fit to a sigmoidal dose response (variable slope).

## TNFα
TNF 2 min
  P-IkB Average: 10421
  P-IkB Raw data: 19130 and 19610 and 19580
  P-IkB Subtract reagent background: 10591 and 10561 and 10111
TNF 4 min
  P-IkB Average: 13121
  P-IkB Raw data: 21660 and 22370 and 22390
  P-IkB Subtract reagent background: 13351 and 13371 and 12641
TNF 6 min
  P-IkB Average: 21828
  P-IkB Raw data: 29170 and 32480 and 30890
  P-IkB Subtract reagent background: 23461 and 21871 and 20151
TNF 8 min
  P-IkB Average: 28528
  P-IkB Raw data: 35450 and 39050 and 38140
  P-IkB Subtract reagent background: 30031 and 29121 and 26431
TNF 10 min
  P-IkB Average: 34158
  P-IkB Raw data: 41810 and 44090 and 43630
  P-IkB Subtract reagent background: 35071 and 34611 and 32791
TNF 12 min
  P-IkB Average: 36728
  P-IkB Raw data: 43840 and 47190 and 46210
  P-IkB Subtract reagent background: 38171 and 37191 and 34821
TNF 15 min
  P-IkB Average: 37461
  P-IkB Raw data: 43590 and 48210 and 47640
  P-IkB Subtract reagent background: 39191 and 38621 and 34571
TNF 30 min
  P-IkB Average: 32864
  P-IkB Raw data: 39720 and 43050 and 42880
  P-IkB Subtract reagent background: 34031 and 33861 and 30701
TNF 45 min
  P-IkB Average: 30164
  P-IkB Raw data: 36730 and 40420 and 40400
  P-IkB Subtract reagent background: 31401 and 31381 and 27711
TNF 60 min
  P-IkB Average: 35274
  P-IkB Raw data: 41100 and 46170 and 45610
  P-IkB Subtract reagent background: 37151 and 36591 and 32081
